This is an account of results in patent US20240342169A1 (BETTA PHARMACEUTICALS CO., LTD, priority 2021, published 2024).

For one assay, the target named is T1, MET(ex14Del) kinase (Homo sapiens, UniProt P08581, DEL963-1009).
T1 construct: purchased Sinalchem (so in the source)
In words: Kinase inhibitory activity assay (ADP-Glo Kinase Assay Kit). Format: biochemical. Particulars: 60 minutes at 25° C., read-out: IC50 (half inhibitory concentration) for MET (ex14Del) kinase. The method, then:
• MET(ex14Del) kinase(Sinalchem, M52-12PG); • ADP-Glo Kinase Assay Kit(Promega, V9102);
And then serially diluted 9 times with DMSO at a volume ratio of 1:3 to make 10 concentrations of 100× compound working solution, the diluted compound solution was added to a 384-well plate at a volume of 0.1 μL/well. 5 μL enzyme working solution was added to the 384-well plate, centrifuged at 1000 rpm for 1 minute, incubated 15 minutes at 25° C. 5 μL substrate working solution was added to each well to make 10 concentrations of 1× compound working solution by 3-fold serial dilutions, in which the maximum concentration of the compound solution is 3000 nM, the reaction was triggered and incubated 60 minutes at 25° C. 10 μL ADP-Glo agent(Promega, V9102) was added to each well, centrifuged at 1000 rpm for 1 minute, incubated 15 minutes at 25° C., then 20 μL kinase detection reagent was added to each well, centrifuged at 1000 rpm for 1 minute. RLU (relative luminescence units) was read by Envision Multimode Plate Reader, the value of RLU was used to characterize the degree of reaction between enzyme and substrate, IC50 values were calculated by XLfit 5.3.1 nonlinear regression equation.
(In general: ADP-Glo turns the ADP formed in a reaction into a luminescent signal.)

A further assay concerns Hs746T Xenograft Model. The experiment in a line: In vivo antitumor activity, Hs746T Xenograft Model. Further details: species or system BALB/c nude mice. Particulars: for Tumor volume: 30 mg/kg intragastrically twice a day. The source says: BALB/c nude mice provided by Shanghai Sipur-Bika Experimental Animal Co., Ltd: SPF grade animals, 6-8 weeks old, weighing 18-23 grams; gender: female; number: 18 mice in the group. • Antibiotic(penicillin, streptomycin): (Gibco, 15240-062). • Administration in solvent control group: Aqueous solution containing 0.5% HPMC and 0.4% Tween 80.
In order to prepare a Hs746T Xenograft Model, BALB/c Nude mice were inoculated subcutaneously with Hs746T cells (harbor an MET exon 14 skipping mutation, provided by ATCC (American Type Cultural Collection)). […] Test compounds were administered intragastrically starting from group date, twice a day for 18 days. Safety evaluation was performed based on animal weight changes and death, and efficacy evaluation was performed based on relative tumor inhibition rate (TGI %).
Human gastric cancer Hs746T cells were cultured single layer in vitro using DMEM medium containing […] and 1% antibiotic solution, and incubated in a 5% CO2, 37° C. incubator. The cells were subcultured traditionally twice a week. The cells were harvested when the confluence reached 80%-90% and the number of cells reaches the required level, and then the cells were counted and seeded.
3. Tumor Measurement and Experimental Indicators Tumor diameters were measured twice a week with vernier calipers. The formula for calculating tumor volume was: V=0.5a×b2, where a and b are the long and short diameters of the tumor, respectively.
After the experiment, the tumor weight will be measured and TGI (%) will be calculated to reflect the rate of tumor growth inhibition. Calculation of TGI(%):TGI (%)=[1−(Average tumor volume at the end of administration in a certain treatment group−Average tumor volume at the beginning of administration in this treatment group)/(Average tumor volume at the end of treatment in the solvent control group−Average tumor volume at the beginning of treatment in the solvent control group)]×100%.

Assay [1] deals with Hs746T cells (harbor an MET exon 14 skipping mutation). In words: Cell proliferation inhibitory activity (CellTiter-Glo). Format: cell-based. Particulars: Homo sapiens, 168 hours incubation, CTG. The method, then:
• 1). Cells in logarithmic growth phase were harvested and counted using cell counter. Trypan blue exclusion test was used to measure the cell viability to make sure the cell viability is at least 90%.
2). Adjust cell concentration, 180 μL cell suspension was added to each well of the 96-well plate at a density of 1200 cells/well.
3). The 96-well plate was incubated overnight under 5% CO2 and 95% humidity conditions at 37° C.
• 1). 20 μL PBS was added to each well of the seeded 96-well plate. • 2). CTG agent was melted and the cell plate was equilibrated to room temperature for 30 minutes. • 3). 100 μL CTG solution was added to each well. • 4). The plate was placed on an orbital shaker for 5 minutes to lyse the cells. • 5). The plate was placed at room temperature for 20 minutes to stabilize the luminescent signal. • 6). TO luminescence value (Lum) was recorded.
• 1). CTG agent was melted and the cell plate was equilibrated to room temperature for 30 minutes. • 2). 100 μL CTG solution was added to each well. • 3). The plate was placed on an orbital shaker for 5 minutes to lyse the cells. • 4). […] Endpoint luminescence value (Lum) was recorded.
The data were analyzed using GraphPad Prism 7.0, in order to calculate IC50, a dose-response curve was fitted using nonlinear regression model with a sigmoidal dose response. […]
On the technique in general: In ATP-based viability assays light output follows the ATP content of the culture.

In assay [2] the test system is stage IIIB/IV NSCLC carrying a MET exon 14 skipping mutation. In words: Clinical study in NSCLC patients carrying a MET exon 14 skipping mutation. It is filed as in vivo, human. Particulars: 225 mg orally once a day. The source says: Inclusion Criteria: Male or female adults, aged >18 years; Patients had newly diagnosed histologically/cytologically confirmed stage IIIB/IV. NSCLC; Patients carrying a MET exon 14 skipping mutation; EGFR/ALK wild type; at least one measurable lesion.

T1 sequence (P08581 with tags, fused parts or gaps DEL963-1009 limits assumed): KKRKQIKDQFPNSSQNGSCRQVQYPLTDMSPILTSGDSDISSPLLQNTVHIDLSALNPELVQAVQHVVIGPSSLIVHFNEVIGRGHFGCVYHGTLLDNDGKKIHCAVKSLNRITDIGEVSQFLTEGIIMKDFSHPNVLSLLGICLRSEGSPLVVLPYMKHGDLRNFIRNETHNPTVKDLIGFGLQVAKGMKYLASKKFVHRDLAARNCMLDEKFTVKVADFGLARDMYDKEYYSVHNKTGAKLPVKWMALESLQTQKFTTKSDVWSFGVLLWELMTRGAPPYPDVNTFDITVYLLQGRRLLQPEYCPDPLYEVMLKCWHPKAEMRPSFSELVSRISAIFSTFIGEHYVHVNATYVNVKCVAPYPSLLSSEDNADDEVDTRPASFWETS

For the molecule `C[C@@H]1CN(C(=O)c2ccc(NC(=O)c3cc(O[C@H](C)c4c(Cl)ccc(F)c4Cl)c(N)nn3)cc2)C[C@H](C)N1` [Ensartinib, ensartinib], the figures for the IC50 (on MET(ex14Del) kinase; in assay [1]) were 7.6 nM and 31 nM, respectively. For the same molecule, the “Tumor growth in tumor-bearing mice (in words)” value in the assay with Hs746T Xenograft Model (30 mg/kg intragastrically twice a day for 18 days) was “obvious tumor regression was observed”. For the same molecule, the Tumor volume amounted to 128 ± 10 mm^3 with Hs746T Xenograft Model (Day 0 (start of dosing)); 109 ± 8 mm^3 in the assay on Hs746T Xenograft Model (Day 3); 101 ± 8 mm^3 in the assay on Hs746T Xenograft Model (Day 7); 74 ± 9 mm^3 with Hs746T Xenograft Model (Day 10); 49 ± 8 mm^3 with Hs746T Xenograft Model (Day 14); 29 ± 15 mm^3 in the assay with Hs746T Xenograft Model (Day 17). Further, in assay [2] (12/17 patients), the “ORR (objective response rate)” value is reported as 71%. The “DCR (disease control rate)” value in assay [2] (16/17 patients) was found to be 94%. Moreover, the “average tumor shrinkage rate” value in assay [2] (17 patients) is −37.7%. For the same molecule, the “CR (complete response)” value in assay [2] (among 17 patients) stood at 1 case. For the same molecule, in assay [2] (among 17 patients), the “PR (partial response)” value is listed as 11 cases.
